Test results taken from PubChem BioAssay AID1963860 (Molecular Pharmacology Branch, DTP, NCI, 2024).

System: CN0375-F725-PDC KRAS spheroid viability
Assay: Anticancer human tumor CN0375-F725-PDC patient-derived colon carcinoma cell line growth inhibition [KRAS2]
Settings: spheroids with HUVEC and MSC; for IC50: curve of first compound; for viability, T/C: stronger effect = lower value
How it was run: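 KRAS-mutant tumor cells were grown as spheroids with HUVEC endothelial cells and human MSCs as stroma. Targeted agents were tested alone and with KRAS pathway inhibitors. Doses started at or near clinical Cmax, or 10 microM, descending half-log.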

[1] = second compound 0.1 µM, first compound 0.0316 µM
[2] = second compound 0.1 µM, first compound 0.1 µM
[3] = second compound 0.1 µM, first compound 0.316 µM
[4] = second compound 0.1 µM, first compound 1 µM
[5] = second compound 0.1 µM, first compound 3.16 µM
[6] = second compound 0.1 µM, first compound 10 µM
[7] = second compound 0.316 µM, first compound 0.0316 µM
[8] = second compound 0.316 µM, first compound 0.1 µM
[9] = second compound 0.316 µM, first compound 0.316 µM
[10] = second compound 0.316 µM, first compound 1 µM
[11] = second compound 0.316 µM, first compound 3.16 µM
[12] = second compound 0.316 µM, first compound 10 µM
[13] = second compound 1 µM, first compound 0.0316 µM
[14] = second compound 1 µM, first compound 0.1 µM
[15] = second compound 1 µM, first compound 0.316 µM
[16] = second compound 1 µM, first compound 1 µM
[17] = second compound 1 µM, first compound 3.16 µM
[18] = second compound 1 µM, first compound 10 µM
[19] = second compound 3.16 µM, first compound 0.0316 µM
[20] = second compound 3.16 µM, first compound 0.1 µM
[21] = second compound 3.16 µM, first compound 0.316 µM
[22] = second compound 3.16 µM, first compound 1 µM
[23] = second compound 3.16 µM, first compound 3.16 µM
[24] = second compound 3.16 µM, first compound 10 µM
[25] = second compound 10 µM, first compound 0.0316 µM
[26] = second compound 10 µM, first compound 0.1 µM
[27] = second compound 10 µM, first compound 0.316 µM
[28] = second compound 10 µM, first compound 1 µM
[29] = second compound 10 µM, first compound 3.16 µM
[30] = second compound 10 µM, first compound 10 µM
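Also: spheroids exposed to agents for 7 days.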

SMILES	IC50 (second compound 0.1 µM) [nM]	IC50 (second compound 0.316 µM) [nM]	IC50 (second compound 1 µM) [nM]	IC50 (second compound 3.16 µM) [nM]	IC50 (second compound 10 µM) [nM]	viability, T/C [1] [%]	viability, T/C [2] [%]	viability, T/C [3] [%]	viability, T/C [4] [%]	viability, T/C [5] [%]	viability, T/C [6] [%]	viability, T/C [7] [%]	viability, T/C [8] [%]	viability, T/C [9] [%]	viability, T/C [13] [%]	viability, T/C [14] [%]	viability, T/C [19] [%]	viability, T/C [20] [%]	viability, T/C [25] [%]	viability, T/C [26] [%]	also measured
CC1(C)CCC(CN2CCN(c3ccc(C(=O)NS(=O)(=O)c4ccc(NCC5CCOCC5)c([N+](=O)[O-])c4)c(Oc4cnc5[nH]ccc5c4)c3)CC2)=C(c2ccc(Cl)cc2)C1 + CC1OCC2(CCN(c3cnc(Sc4ccnc(N)c4Cl)c(N)n3)CC2)C1N	3490	2760	2600	2130	1610	103	100	104	103	51.6	31.6	95.4	100	94.6	90.7	91.5	84.4	87.1	67.7	73.2	viability, T/C [10]: 95.8%; viability, T/C [11]: 43.8%; viability, T/C [12]: 25.1%; viability, T/C [15]: 89.9%; viability, T/C [16]: 86.3%; viability, T/C [17]: 42.5%; viability, T/C [18]: 22.2%; viability, T/C [21]: 87.4%; viability, T/C [22]: 82.8%; viability, T/C [23]: 32.9%; viability, T/C [24]: 13.9%; viability, T/C [27]: 77.2%; viability, T/C [28]: 69.6%; viability, T/C [29]: 22%; viability, T/C [30]: 8.8%
CN(C)C/C=C/C(=O)Nc1cc2c(Nc3ccc(F)c(Cl)c3)ncnc2cc1O[C@H]1CCOC1 + COc1cc2nc(C)nc(NC(C)c3cc(N)cc(C(F)(F)F)c3)c2cc1OC1CCOC1	> 100	> 100	> 100	> 100	> 100	84.8	77.9	–	–	–	–	78.1	79.3	–	81.6	78.1	66.5	65.8	60.6	63.7	viability, T/C (second compound 0.1 µM, first compound 0.000316 µM): 102%; viability, T/C (second compound 0.1 µM, first compound 0.001 µM): 92.6%; viability, T/C (second compound 0.1 µM, first compound 0.00316 µM): 85.7%; viability, T/C (second compound 0.1 µM, first compound 0.01 µM): 83.7%; viability, T/C (second compound 0.316 µM, first compound 0.000316 µM): 96%; viability, T/C (second compound 0.316 µM, first compound 0.001 µM): 92.5%; viability, T/C (second compound 0.316 µM, first compound 0.00316 µM): 86.4%; viability, T/C (second compound 0.316 µM, first compound 0.01 µM): 85.7%; viability, T/C (second compound 1 µM, first compound 0.000316 µM): 91.9%; viability, T/C (second compound 1 µM, first compound 0.001 µM): 94.6%; viability, T/C (second compound 1 µM, first compound 0.00316 µM): 87.3%; viability, T/C (second compound 1 µM, first compound 0.01 µM): 82.7%; viability, T/C (second compound 3.16 µM, first compound 0.000316 µM): 77.3%; viability, T/C (second compound 3.16 µM, first compound 0.001 µM): 71.5%; viability, T/C (second compound 3.16 µM, first compound 0.00316 µM): 71.8%; viability, T/C (second compound 3.16 µM, first compound 0.01 µM): 66.1%; viability, T/C (second compound 10 µM, first compound 0.000316 µM): 65.5%; viability, T/C (second compound 10 µM, first compound 0.001 µM): 70.1%; viability, T/C (second compound 10 µM, first compound 0.00316 µM): 68.2%; viability, T/C (second compound 10 µM, first compound 0.01 µM): 47%
CCNC(=O)CC1N=C(c2ccc(Cl)cc2)c2cc(OC)ccc2-n2c(C)nnc21 (stereo not given) + CNCc1ccccc1-c1csc(C(C)Nc2nc(C)nc3cc(OC)c(OC)cc23)c1	> 10000	6770	1480	< 31.6	< 31.6	103	89	76.2	75.2	67.3	50.9	92.5	85.2	77	57.8	65.7	0.58	0.33	0.3	0.29	viability, T/C [10]: 67.7%; viability, T/C [11]: 58.4%; viability, T/C [12]: 45.6%; viability, T/C [15]: 63.7%; viability, T/C [16]: 52.7%; viability, T/C [17]: 40.9%; viability, T/C [18]: 20.7%; viability, T/C [21]: 0.36%; viability, T/C [22]: 0.35%; viability, T/C [23]: 0.39%; viability, T/C [24]: 0.46%; viability, T/C [27]: 0.46%; viability, T/C [28]: 0.31%; viability, T/C [29]: 0.71%; viability, T/C [30]: 0.4%
